In brackets after ≈: the same amount, converted by molar mass. Like-named read-outs stand apart in the source and are kept apart here.
How the values were obtained:
[1] = tested on: Staphylococcus aureus MS 12917 Mac^r; assay: MIC by agar dilution method; assay type: cell-based
Excerpt: (§1) Also shown in the same table are the MIC's obtained for josamycin (JM) and erythromycin (EM) as controls.
(§2) Note: "Mac^r " stands for a constitutive macrolide resistant

[2] = tested on: Staphylococcus aureus MS 15009 (pI258) Mac^r; assay: MIC by agar dilution method; assay type: cell-based
Excerpt: as §1, §2

[3] = tested on: Serratia marcescens IAM 1184 (MS-1); assay: MIC by agar dilution method; assay type: cell-based; settings: IAM1184
Excerpt: as §1

[4] = tested on: Micrococcus luteus ATCC 9341 (MS-1); assay: MIC by agar dilution method; assay type: cell-based; settings: ATCC9341
Excerpt: as §1

[5] = tested on: Escherichia coli NIHJ-JC-2 (MS-1); assay: MIC by agar dilution method; assay type: cell-based; settings: NIHJJC2, E. coli NIHJ-JC-2 (MS-1)
Excerpt: as §1

Mycoplasma pneumoniae = assay: MIC by agar dilution method; assay type: cell-based
Excerpt: as §1

[6] = tested on: Escherichia coli K12 C600 (MS-1); assay: MIC by agar dilution method; assay type: cell-based; settings: E. coli K12 C600 (MS-1)
Excerpt: as §1

[7] = tested on: Pseudomonas aeruginosa IFO 3445 (MS-1); assay: MIC by agar dilution method; assay type: cell-based; settings: IFO3445
Excerpt: as §1

[8] = tested on: Pseudomonas aeruginosa PAO 1 (MS-1); assay: MIC by agar dilution method; assay type: cell-based
Excerpt: as §1

[9] = tested on: Salmonella schottmuelleri 8006 (MS-1); assay: MIC by agar dilution method; assay type: cell-based
Excerpt: as §1

[10] = tested on: Staphylococcus aureus Terajima (MS-1); assay: MIC by agar dilution method; assay type: cell-based
Excerpt: as §1

[11] = tested on: Proteus vulgaris OX-19 (MS-1); assay: MIC by agar dilution method; assay type: cell-based
Excerpt: as §1

[12] = tested on: Enterobacter aerogenes ATCC 13048 (MS-1); assay: MIC by agar dilution method; assay type: cell-based; settings: Klebsiella aerogenes, ATCC13048
Excerpt: as §1

Bacillus cereus IAM 1729 = assay: MIC by agar dilution method; assay type: cell-based; settings: IAM1729
Excerpt: as §1

[13] = tested on: Proteus rettgeri IFO 3850 (MS-1); assay: MIC by agar dilution method; assay type: cell-based; settings: Providencia rettgeri, IFO3850
Excerpt: as §1

[14] = tested on: Staphylococcus aureus FDA 209PJC-1 (MS-1); assay: MIC by agar dilution method; assay type: cell-based
Excerpt: as §1

[15] = tested on: Streptococcus pyogenes Cook (MS-1); assay: MIC by agar dilution method; assay type: cell-based
Excerpt: as §1

[16] = tested on: Pseudomonas aeruginosa NCTC 10490 (MS-1); assay: MIC by agar dilution method; assay type: cell-based; settings: NCTC10490
Excerpt: as §1

[17] = tested on: Salmonella paratyphi 1015 (MS-1); assay: MIC by agar dilution method; assay type: cell-based; settings: Salmonella enterica
Excerpt: as §1

[18] = tested on: Salmonella enteritidis G 14 (MS-1); assay: MIC by agar dilution method; assay type: cell-based; settings: Salmonella enterica
Excerpt: as §1

[19] = tested on: Klebsiella pneumoniae PCI-602 (MS-1); assay: MIC by agar dilution method; assay type: cell-based
Excerpt: as §1

[20] = tested on: Staphylococcus aureus MS 353 (MS-1); assay: MIC by agar dilution method; assay type: cell-based
Excerpt: as §1

[21] = tested on: Salmonella typhimurium IID971 (MS-1); assay: MIC by agar dilution method; assay type: cell-based; settings: Salmonella enterica
Excerpt: as §1

[22] = tested on: Bacillus subtilis ATCC 6633 (MS-1); assay: MIC by agar dilution method; assay type: cell-based; settings: ATCC6633
Excerpt: as §1

[23] = tested on: Enterobacter cloacae 963 (MS-1); assay: MIC by agar dilution method; assay type: cell-based
Excerpt: as §1

[24] = tested on: Salmonella typhi 901 (MS-1); assay: MIC by agar dilution method; assay type: cell-based; settings: Salmonella enterica
Excerpt: as §1

[25] = tested on: Proteus morganii IFO 3848 (MS-1); assay: MIC by agar dilution method; assay type: cell-based; settings: Morganella morganii, IFO3848
Excerpt: as §1

Solubility = assay type: physicochemical
[26] = agar dilution, Serratia marcescens IAM 1184 (MS-1), read-out: MIC
[27] = agar dilution, Micrococcus luteus ATCC 9341 (MS-1), read-out: MIC
[28] = agar dilution, Mycoplasma pneumoniae, read-out: MIC
[29] = agar dilution, Pseudomonas aeruginosa IFO 3445 (MS-1), read-out: MIC
[30] = agar dilution, Pseudomonas aeruginosa PAO 1 (MS-1), read-out: MIC
[31] = agar dilution, S. aureus Terajima (MS-1), read-out: MIC
[32] = agar dilution, Proteus vulgaris OX-19 (MS-1), read-out: MIC
[33] = agar dilution, Enterobacter aerogenes ATCC 13048 (MS-1), read-out: MIC
[34] = agar dilution, Bacillus cereus IAM 1729, read-out: MIC
[35] = agar dilution, Proteus rettgeri IFO 3850 (MS-1), read-out: MIC
[36] = agar dilution, S. aureus FDA 209PJC-1 (MS-1), read-out: MIC
[37] = agar dilution, Streptococcus pyogenes Cook (MS-1), read-out: MIC
[38] = agar dilution, Pseudomonas aeruginosa NCTC 10490 (MS-1), read-out: MIC
[39] = agar dilution, Salmonella enteritidis G 14 (MS-1), read-out: MIC
[40] = agar dilution, Klebsiella pneumoniae PCI-602 (MS-1), read-out: MIC
[41] = agar dilution, S. aureus MS 353 (MS-1), read-out: MIC
[42] = agar dilution, Salmonella typhimurium IID971 (MS-1), read-out: MIC
[43] = agar dilution, Bacillus subtilis ATCC 6633 (MS-1), read-out: MIC
[44] = agar dilution, Enterobacter cloacae 963 (MS-1), read-out: MIC
[45] = agar dilution, Proteus morganii IFO 3848 (MS-1), read-out: MIC

| Compound | MIC [1] [mg/L] | MIC [2] [mg/L] | MIC [3, 26] [mg/L] | MIC [4, 27] [mg/L] | MIC [5] [mg/L] | MIC [6] [mg/L] | MIC [7, 29] [mg/L] | MIC [8, 30] [mg/L] | MIC [9] [mg/L] | MIC [10, 31] [mg/L] | MIC [11, 32] [mg/L] | MIC [12, 33] [mg/L] | MIC (Bacillus cereus IAM 1729; [34]) [mg/L] | MIC [13, 35] [mg/L] | MIC [14, 36] [mg/L] | MIC [15, 37] [mg/L] | MIC [16, 38] [mg/L] | MIC [17] [mg/L] | MIC [18, 39] [mg/L] | MIC [24] [mg/L] | also measured |
| --- | --- | --- | --- | --- | --- | --- | --- | --- | --- | --- | --- | --- | --- | --- | --- | --- | --- | --- | --- | --- | --- |
| CO[C@@H]1[C@@H](O[C@@H]2O[C@H](C)[C@@H](O[C@H]3C[C@@](C)(O)[C@@H](OC(=O)CC(C)C)[C@H](C)O3)[C@H](N(C)C)[C@H]2O)[C@@H](CC=O)C[C@@H](C)[C@@H](O)/C=C/C=C/C[C@@H](C)OC(=O)C[C@H]1OC(C)=O [JM, josamycin, reference compound] | > 100 | > 100 | > 100 | < 0.1 | > 100 | > 100 | > 100 | > 100 | > 100 | 0.78 (≈ 0.942 µM) | > 100 | > 100 | 0.39 (≈ 0.471 µM) | > 100 | 0.2 (≈ 0.242 µM) | 0.2 (≈ 0.242 µM) | > 100 | 100 (≈ 121 µM) | > 100 | > 100 | MIC (Mycoplasma pneumoniae; [28]): 0.2 mg/L (≈ 0.242 µM); MIC [19, 40]: 12.5 mg/L (≈ 15.1 µM); MIC [20, 41]: 0.78 mg/L (≈ 0.942 µM); MIC [21, 42]: > 100 mg/L; MIC [22, 43]: 0.39 mg/L (≈ 0.471 µM); MIC [23, 44]: > 100 mg/L; MIC [25, 45]: > 100 mg/L |
| CCC1OC(=O)CC(O)C(C)C(OC2OC(C)C(OC3CC(C)(O)C(O)C(C)O3)C(N(C)C)C2O)C(CC=O)CC(C)C(=O)C=CC2(C)OC2C1C (stereo not drawn) [M 119-a] | > 100 | > 100 | > 100 | < 0.1 | > 100 | 100 (≈ 135 µM) | > 100 | > 100 | 100 (≈ 135 µM) | 0.78 (≈ 1.05 µM) | > 100 | > 100 | 0.39 (≈ 0.526 µM) | > 100 | 0.2 (≈ 0.27 µM) | 0.2 (≈ 0.27 µM) | > 100 | 50 (≈ 67.4 µM) | > 100 | 100 (≈ 135 µM) | MIC (Mycoplasma pneumoniae; [28]): 0.1 mg/L (≈ 0.135 µM); MIC [19, 40]: 12.5 mg/L (≈ 16.8 µM); MIC [20, 41]: 0.78 mg/L (≈ 1.05 µM); MIC [21, 42]: > 100 mg/L; MIC [22, 43]: 0.2 mg/L (≈ 0.27 µM); MIC [23, 44]: > 100 mg/L; MIC [25, 45]: 50 mg/L (≈ 67.4 µM); Solubility (Solubility; in hexane, ether and water): insoluble; Solubility (Solubility; in methanol and chloroform): Soluble |
| CCC1OC(=O)CC(O)C(C)C(OC2OC(C)C(OC3CC(C)(O)C(O)C(C)O3)C(N(C)C)C2O)C(CC=O)CC(C)C(=O)C=CC2(C)OC2C1(C)O (stereo not drawn) [M 119-d] | > 100 | > 100 | > 100 | 0.2 (≈ 0.264 µM) | > 100 | 100 (≈ 132 µM) | > 100 | > 100 | 25 (≈ 33 µM) | 3.13 (≈ 4.13 µM) | > 100 | 100 (≈ 132 µM) | 1.56 (≈ 2.06 µM) | > 100 | 0.78 (≈ 1.03 µM) | 0.78 (≈ 1.03 µM) | > 100 | 25 (≈ 33 µM) | > 100 | 100 (≈ 132 µM) | MIC [19, 40]: 12.5 mg/L (≈ 16.5 µM); MIC [20, 41]: 3.13 mg/L (≈ 4.13 µM); MIC [21, 42]: > 100 mg/L; MIC [22, 43]: 0.78 mg/L (≈ 1.03 µM); MIC [23, 44]: > 100 mg/L; MIC [25, 45]: 50 mg/L (≈ 66 µM); Solubility (Solubility; in hexane, ether and water): insoluble; Solubility (Solubility; in methanol and chloroform): Soluble |
| CC[C@H]1OC(=O)[C@H](C)[C@@H](O[C@H]2C[C@@](C)(OC)[C@@H](O)[C@H](C)O2)[C@H](C)[C@@H](O[C@@H]2O[C@H](C)C[C@H](N(C)C)[C@H]2O)[C@](C)(O)C[C@@H](C)C(=O)[C@H](C)[C@@H](O)[C@]1(C)O [EM, erythromycin, reference compound] | > 100 | > 100 |  |  | 100 (≈ 136 µM) | 50 (≈ 68.1 µM) |  |  | 50 (≈ 68.1 µM) |  |  |  |  |  |  |  |  | 25 (≈ 34.1 µM) |  | 50 (≈ 68.1 µM) | MIC ([3]; Serratia marcescens): 100 mg/L (≈ 136 µM); MIC ([4]; Micrococcus luteus): < 0.1 mg/L; MIC (Mycoplasma pneumoniae; Mycoplasma): 0.1 mg/L (≈ 0.136 µM); MIC ([7]; Pseudomonas aeruginosa): > 100 mg/L; MIC ([8]; Pseudomonas aeruginosa): > 100 mg/L; MIC [10]: 0.2 mg/L (≈ 0.273 µM); MIC ([11]; Proteus vulgaris): > 100 mg/L; MIC [12]: 100 mg/L (≈ 136 µM); MIC (Bacillus cereus IAM 1729; Bacillus cereus): 0.2 mg/L (≈ 0.273 µM); MIC [13]: > 100 mg/L; MIC [14]: 0.2 mg/L (≈ 0.273 µM); MIC ([15]; Streptococcus pyogenes): 0.2 mg/L (≈ 0.273 µM); MIC ([16]; Pseudomonas aeruginosa): > 100 mg/L; MIC ([18]; ENTERITIDIS): 100 mg/L (≈ 136 µM); MIC ([19]; Klebsiella pneumoniae): 6.25 mg/L (≈ 8.52 µM); MIC [20]: 0.2 mg/L (≈ 0.273 µM); MIC [21]: 100 mg/L (≈ 136 µM); MIC ([22]; Bacillus subtilis): < 0.1 mg/L; MIC ([23]; Enterobacter cloacae): > 100 mg/L; MIC [25]: 25 mg/L (≈ 34.1 µM) |

From US4734492A, “Macrolide antibiotic M 119” (Kirin Beer Kabushiki Kaisha, priority 1985, dated 1988)
